The target of one experiment is T1, E. coli Dgt (Escherichia coli, UniProt P15723).
T1 sequence (P15723 1-505): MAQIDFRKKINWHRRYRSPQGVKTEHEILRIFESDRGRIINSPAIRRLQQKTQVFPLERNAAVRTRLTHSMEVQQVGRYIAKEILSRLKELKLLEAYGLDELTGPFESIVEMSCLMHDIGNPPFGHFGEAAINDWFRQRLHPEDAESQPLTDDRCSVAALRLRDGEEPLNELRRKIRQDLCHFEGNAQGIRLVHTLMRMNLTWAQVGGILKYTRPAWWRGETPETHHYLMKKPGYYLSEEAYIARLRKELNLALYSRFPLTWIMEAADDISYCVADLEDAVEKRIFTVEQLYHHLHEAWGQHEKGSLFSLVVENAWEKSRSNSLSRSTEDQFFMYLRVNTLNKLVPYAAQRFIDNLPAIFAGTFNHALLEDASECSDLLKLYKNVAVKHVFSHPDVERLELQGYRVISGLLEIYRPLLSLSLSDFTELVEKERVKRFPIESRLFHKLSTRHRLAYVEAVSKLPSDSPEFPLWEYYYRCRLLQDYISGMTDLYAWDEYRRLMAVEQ
Description: PNP/xanthine oxidase coupled dGTPase assay, A297. The experiment is classed as biochemical.

Another experiment concerns the target T2, Dgt–Gp1.2 complex (Escherichia coli; Escherichia phage T7, UniProt P03780+P15723).
T2 sequence (P15723 1-505): T1 sequence (P15723 1-505)
T2 sequence (P03780 2-85): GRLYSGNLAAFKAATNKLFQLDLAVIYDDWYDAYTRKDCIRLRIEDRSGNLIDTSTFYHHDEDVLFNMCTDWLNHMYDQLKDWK
Description: PNP/xanthine oxidase coupled dGTPase assay, A297. The experiment is classed as biochemical.

Each structure is given as a SMILES string.

As usually defined, the Ki is a measure of affinity in units of concentration, obtained from inhibition or displacement. Low values mean higher affinity, high ones lower affinity. What is called IC50 is the concentration that inhibits the measured activity by half. Low readings indicate higher potency, high ones lower potency.

At E. coli Dgt, `Nc1nc2c(ncn2[C@@H]2O[C@H](COP(=O)(O)OP(=O)(O)OP(=O)(O)O)[C@@H](O)[C@H]2O)c(=O)[nH]1` [GTP] returned a Ki of 120 ± 50 µM. It took 0.31 ± 0.05 µM to reach half-maximal inhibition against Dgt–Gp1.2 complex (IC50).

The record behind these values is PMC9478638 (Proceedings of the National Academy of Sciences of the …, 2022).
